In series [1] the test system is Colo205. Kind of series: MTT cytotoxicity assay, Colo205. In kind it is cell-based. As to conditions: Homo sapiens, COLO 205, 72 h of exposure. As for the experimental part: (§1) The in vitro cytotoxicity of the TSCs HL^1–HL^3, copper(II) complexes Cu(HL^1)Cl2, [Cu(L^2)Cl], and Cu(HL^3)Cl2, and oxidized TSCs HL^1a′, HL^1a″, and HL^2c′·CH3COOH was tested in the doxorubicin-sensitive Colo205 and the multidrug-resistant Colo320 human colonic adenocarcinoma cell lines as well as in normal human embryonal lung fibroblast cells (MRC-5) by the colorimetric MTT assay. […]
(§2) 2.5. In vitro cell studies
(§3) 2.5.1. Cell lines and culture conditions
(§4) All cell culture reagents were obtained from Sigma-Aldrich and plastic ware from Sarstedt
(§5) (Germany). Doxorubicin-sensitive human colonic Colo 205 and multidrug resistant
(§6) Colo 320/MDR-LRP adenocarcinoma cell lines were purchased from LGC Promochem,
(§7) Teddington, UK. The cells were cultured in Roswell Park Memorial Institute (RPMI) 1640
(§8) medium supplemented with 10% heat-inactivated fetal bovine serum, 2 mM L-glutamine, 1 mM
(§9) Na-pyruvate and 100 mM Hepes. The cell lines were incubated at 37°C, in a 5% CO2, 95% air
(§10) MRC-5 human embryonal lung fibroblast cell line (ATCC CCL-171) was purchased from LGC
(§11) Promochem, Teddington, UK. The cell line was cultured in Eagle’s Minimal Essential Medi um
(§12) (EMEM, containing 4.5 g/L glucose) supplemented with a non-essential amino acid mixture, a
(§13) selection of vitamins and 10% heat-inactivated fetal bovine serum. The cells were incubated at
(§14) 37°C, in a 5% CO2, 95% air atmosphere. All cell lines were detached with Trypsin-Versene
(§15) (EDTA) solution for 5 min at 37 °C.
(§16) The tested compounds were dissolved in DMSO using 10 mM concentration. Then stock solutions
(§17) were diluted in complete culture medium in 96-well microtiter plates, and two-fold serial dilutions
(§18) of compounds were prepared in 100 µL of RPMI 1640, horizontally. The semi-adherent colonic
(§19) adenocarcinoma cells were treated with Trypsin -Versene (EDTA) solution. They were adjusted to
(§20) a density of 1×10^4 cells in 100 µL of RPMI 1640 medium, and were added to each well, with the
(§21) exception of the medium control wells. The final volume of the wells containing compounds and
(§22) cells was 200 µL. The culture were incubated at 37 °C for 72 h; at the end of the incubation period,
(§23) 20 µL of MTT solution (from a stock solution of 5 mg/mL) were added to each well. After
(§24) incubation at 37 °C for 4 h, 100 µL of SDS solution (10% in 0.01 M HCI) were added to each well
(§25) and the plates were further incubated at 37 °C overnight. The cell growth was determined using
(§26) both methods by measuring the optical density (OD) at 450 nm (ref. 620 nm) with a Multiscan EX
(§27) ELISA reader. Inhibition of the cell growth (expressed as IC 50: inhibitory concentration that
(§28) reduces by 50% the growth of the cells exposed to the tested compounds) was determined from
(§29) the sigmoid curve where 100 – ((ODsample ‒ ODmedium control)/(ODcell control ‒ ODmedium control)) × 100
(§30) values were plotted against the logarithm of compound concentrations. […]
(§31) 0.76 tyrosyl radical/polypeptide. Samples containing 20 µM mR2 in 50 mM HEPES buffer, pH
(§32) 7.50/100 mM NaCl, and 20 µM respective compound in 1% (v/v) DMSO/H2O, and 2 mM
A general note: Tetrazolium assays rely on reduction of a dye to a coloured formazan, in cell work by metabolically active cells.

Series [2] has as its system Colo320. Kind of series: MTT cytotoxicity assay, Colo320. In kind it is cell-based. As to conditions: Homo sapiens, COLO 320, 72 h of exposure. How it is done: as §1, §2, §3, §4, §5, §6, §7, §8, §9, §10, §11, §12, §13, §14, §15, §16, §17, §18, §19, §20, §21, §22, §23, §24, §25, §26, §27, §28, §29, §30, §31, §32
Another series has as its system MRC-5. Description: MTT cytotoxicity assay, MRC-5. In kind it is cell-based. The settings on record: Homo sapiens, MRC5, 72 h of exposure. How it is done:
as §2, §3
All cell culture reagents were obtained from Sigma-Aldrich and plastic ware from Sarstedt […]
as §10, §11, §12, §13, §14, §15, §16, §17, §18, §19, §20, §21, §22, §23, §24, §25, §26, §27, §28, §29, §30

The target of another series is T1, mouse R2 RNR protein (Mus musculus, UniProt P11157).
T1 construct: made in house
T1 sequence (P11157 1-390): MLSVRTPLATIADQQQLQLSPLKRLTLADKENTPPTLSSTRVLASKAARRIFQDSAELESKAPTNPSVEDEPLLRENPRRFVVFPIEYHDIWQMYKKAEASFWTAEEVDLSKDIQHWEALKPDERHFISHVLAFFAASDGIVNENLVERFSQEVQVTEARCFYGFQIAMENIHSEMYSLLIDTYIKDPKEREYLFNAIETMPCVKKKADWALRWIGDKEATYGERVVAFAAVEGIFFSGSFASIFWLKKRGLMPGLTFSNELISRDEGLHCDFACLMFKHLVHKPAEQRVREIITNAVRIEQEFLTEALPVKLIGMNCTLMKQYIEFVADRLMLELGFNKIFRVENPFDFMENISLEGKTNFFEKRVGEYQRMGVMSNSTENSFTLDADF
Description: Tyrosyl radical reduction in mouse R2 RNR protein (EPR). As to conditions: 2 mM DTT. In kind it is biochemical. As for the experimental part:
The time-dependent tyrosyl radical reduction in mR2 RNR by equimolar concentrations of TSCs and their respective copper(II) complexes, under reducing conditions, is shown in Figure 15. […] The favorable impact of the copper(II) coordination on the HL^2 inhibitory activity is quite obvious, when the ability to quench the tyrosyl radical by HL^2 is compared to that of 2′.
The samples contained 20 μM mR2 in 50 mM HEPES buffer, pH 7.60/100 mM KCl, 20 μM compound in 1% (v/v) DMSO/H2O, and 2 mM DTT. […]
2.6. Tyrosyl radical reduction in mouse R2 RNR protein
The tyrosyl radical reduction in mR2 protein by HL1, HL2, HL3, Cu(HL1)Cl2, [Cu(L2)Cl],
Cu(HL3)Cl2, HL1a’, HL1a’’, and HL2c´·CH3COOH was measured by EPR spectroscopy at 30 K,
on a Bruker Elexsys II E540 EPR spectrometer with an Oxford Instruments ER 4112HV helium
cryostat, as described previously.12,13 mR2 protein was expressed, purified, and iron -reconstituted
as described previously, 14 and passed through a 5 mL HiTrap desalting column (GE Healthcare)
as §31, §32
dithiothreitol (DTT) were incubated for indicated times and quickly frozen in cold isopentane. The
same samples were used for repeated incubations at room temperature. […]
Furthermore, the intrinsic reaction coordinate (IRC) analysis was
performed to authenticate that the transition state pertains to the desired reaction coordinate. The
IRC calculations were done at the B3LYP/6-311++G(d,p) level of theory. Molecular orbitals were
drawn using Molekel software.17
3. Schemes for assignment of resonances in HL1 – HL3 and their isomers
Scheme S1. The atom numbering for the assignment of resonances in HL1 – HL3.
(1 picture or pasted object on this page, not shown here)

The next series concerns Colo320 cells. Description: Annexin-V-FITC/PI apoptosis induction assay (flow cytometry). As to conditions: 3 h induction. In kind it is cell-based, human. How it is done: To gain further insights into the cytotoxic behavior of the compounds, apoptosis induction by lead compounds HL^1 and [Cu(L^2)Cl] was investigated by a flow cytometry analysis of multidrug-resistant Colo320 cells stained with Annexin-V-FITC and propidium iodide (PI).
Colo320 cells were treated at the indicated concentration of the drugs. The dual parametric dot plots that combine the Annexin-V (FL1) and PI (FL3) fluorescence show the viable cell population in the lower-left quadrant Annexin-V–/PI– (Q4), the early apoptotic cells in the lower-right quadrant Annexin-V+/PI– (Q3), and the late apoptotic and necrotic cells in the upper-right quadrant Annexin-V+/PI+ (Q2). […]
2.5.3. Mechanisms of cell death: assay for apoptosis induction
The assay was carried out for selected compounds using an Annexin V-FITC Apoptosis Detection
Kit (Cat. No. APOAF-50TST) from Sigma according to the manufacturer's instructions. The
concentration of the Colo320 cell suspension was adjusted to approximately 0.5 × 10^6 cells per
mL in RPMI medium and the cell suspension was distributed in 1 mL aliquots into a 24-well plate,
and then incubated overnight at 37 °C and 5% CO2. On the following day, the medium was
removed and replaced by 1 mL RPMI medium containing the compounds except the control
samples. Colo320 cells were incubated in the presence of the compounds at 4 and 8 μM (HL1), or
0.25 and 0.50 μM (Cu(HL2)Cl2) in the 24-well plate at 37 °C for 3 h, and 12H-
controls. After the incubation period the samples were washed with PBS and fresh RPMI medium
was added to the samples. The cells were incubated overnight at 37 °C and 5% CO2. The next day,
200 μL 0.25% Trypsin (Trypsin-Versen) was added to the samples until cells appeared detached
followed by the addition of 400 μL of RPMI medium supplemented with 10% bovine serum. The
cells were collected in Eppendorf tubes and centrifuged at 2000 g for 2 min. The harvested cells
were resuspended in fresh serum free RPMI medium culture medium. After this step, the apoptosis
assay was carried out according to the instructions of the manufacturer. The fluorescence was
analyzed immediately using a ParTec CyFlow flow cytometer (Partec GmbH, Münster, Germany). […]
(In flow cytometry, cells or beads pass a laser one at a time.)

The test system of series [3] is Colo205. Also noted: method as in doi:10.1039/D0NJ01070G. As to conditions: 72 h of exposure; ref [77]; cited from earlier work.
Series [4] has as its system Colo320. Also noted: method as in doi:10.1039/D0NJ01070G. The settings on record: 72 h of exposure; ref [77]; cited from earlier work.
Details of series [5]: method as in earlier work. As to conditions: cited from earlier work.
Series [6] deals with SW480, MES-SA, MES-SA/Dx5, HL60, 41M, SK-BR-3. Details: method as in PMID 32336116, PMID 22189939, PMID 31250199. The settings on record: several human cancer cells; ref [36],[58],[80]; read-out: IC50 values reported; cited from earlier work.
For series [7] the following is noted: pH 7.4; cited from earlier work.

Where two headings read alike, the source gives them in different places.

Usually IC50 stands for the concentration at which inhibition is half-maximal. For `CC(=NNc1nc2cc(C)c(O)c(C)c2s1)c1ccccn1` [HL^2c′·CH3COOH], the IC50 in the series with Colo205 [1] is 2.73 ± 0.059 µM; with Colo320 [2], 0.188 ± 0.041 µM; in the series on MRC-5 it was 2.15 ± 0.1 µM. Further, the “tyrosyl radical reduction (comparison in words)” value at mouse R2 RNR protein (20 μM compound) was “as potent as HL^3”.
In the case of `c1ccc2c(c1)Nc1c(ccc3ccccc13)S2` [M627, 12H-Benzophenothiazine, reference compound], in the series with Colo320 cells (10 µM), the “Cell death % Q1” value turned out to be 4.59%; the “Early apoptosis % Q3” value came to 12.4%; the “Late apoptosis and necrosis % Q2” value is on record as 31.5%. Besides, in the series with Colo320 cells (20 µM), the “Cell death % Q1” value is reported as 7.85%; the “Early apoptosis % Q3” value turned out to be 11.1%; the “Late apoptosis and necrosis % Q2” value was found to be 26.1%.
Take `N.N.[Cl][Pt][Cl]` [cisplatin, reference compound]: in the series with Colo320 cells (15 µM), the “Cell death % Q1” value was 1.64%; the “Early apoptosis % Q3” value came to 1.68%; the “Late apoptosis and necrosis % Q2” value is 2.24%. In addition, in the series on Colo320 cells (30 µM), the “Cell death % Q1” value stood at 0.79%; the “Early apoptosis % Q3” value was 4.90%; the “Late apoptosis and necrosis % Q2” value is recorded as 4.07%.
Turning to `COc1cccc2c1C(=O)c1c(O)c3c(c(O)c1C2=O)C[C@@](O)(C(=O)CO)C[C@@H]3O[C@H]1C[C@H](N)[C@H](O)[C@H](C)O1` [doxorubicin], the half-inhibitory concentration (IC50) is 3.28 µM with Colo205 [3] and 3.12 µM in the series with Colo320 [4].
Take `NC(=O)NO` [hydroxyurea]: the redox potential entry in series [5] is on record as “+0.724 V”.
Take `NC(=S)N/N=C/c1ncccc1N` [triapine, 3-aminopyridine-2-carboxaldehyde TSC, reference compound]: the IC50 in the series on Colo205 [1] is 3.34 ± 0.12 µM; in the series on Colo320 [2], 4.21 ± 0.46 µM; in series [6], 0.4 to 2.6 µM. Also, the “mR2 inhibition potency order” value on mouse R2 RNR protein (equimolar 20 μM compound and mR2) is “HL^1 ≈ triapine > HL^3 > HL^2”. Besides, the “log D7.4” value in [7] was “+0.85”.

These data come from publication PMC8335727 (Inorganic Chemistry, 2021).
